Data taken from article PMC5799297, “Metabolic Hydrolysis of Aromatic Amides in Selected Rat, Minipig, and Human In Vitro Systems” (Scientific Reports, 2018).
Like-named read-outs stand apart in the source and are kept apart here.

Tests used:
[1] = Excerpt: (§1) Pooled subcellular fractions of male Sprague-Dawley rat liver S9 fractions (10 donors), male Sprague-Dawley Aroclor 1254 induced rat liver S9 fractions (20 donors), human liver S9 fractions (mixed gender 10 donors), male Gottingen minipig liver microsomes (3 donors) and male Gottingen minipig liver S9 fractions (3 donors) were purchased from BioreclamationIVT (West Sussex, UK). Cryopreserved primary human hepatocytes (mixed gender 10 donors) were also purchased from BioreclamationIVT. Human CES1b, CES1c and CES2 Supersomes and human liver microsomes (mixed gender 150 donors) were purchased from Corning (Flintshire, UK). […]
(§2) LC-MS/MS analysis was performed using a Waters UPLC instrument with an Acquity^TM binary solvent manager, Acquity^TM 4-position heated column manager and 2777 Ultra High Pressure Autosampler coupled to a Xevo-TQ MS triple quadrupole mass spectrometer (Waters Ltd, Herts, UK) with an electrospray ionisation (ESI) source. […] Incubations where the total parent amide decreased below 80% of the t0 baseline sample or the amine metabolite was detected were determined to be hydrolysed.

[2] = human, in vivo; cited from earlier work
[3] = cited from earlier work
AADAC = details: cited from earlier work
[4] = Amide hydrolysis by minipig liver microsomes; details: 1 mg/ml protein, 0.5 µM amide, pH 7.4, up to 120 min, no NADPH
Excerpt: as §1, §2

O=C(CCl)Nc1ccccc1 [2-chloro-N-phenylacetamide]
change in rate of hydrolysis as a result of Aroclor 1254 induction [1]: enhanced rate of hydrolysis

Nc1ccc([N+](=O)[O-])c(C(F)(F)F)c1 [3-trifluoromethyl-4-nitroaniline]
hepatotoxicity [2]: associated with hepatotoxicity

CC(=O)Nc1ccccc1 [acetanilide, Acetanilide]
amide hydrolysis in humans in vivo [3]: has been observed | dose hydrolysed in humans in vivo [3]: approximately 10%

CC(O)(CS(=O)(=O)c1ccc(F)cc1)C(=O)Nc1ccc(C#N)c(C(F)(F)F)c1 (stereo not shown) [bicalutamide, Bicalutamide]
hepatotoxicity [2]: few cases of hepatotoxicity

CC(C)C(=O)Nc1ccc([N+](=O)[O-])c(C(F)(F)F)c1 [flutamide, Flutamide]
enzyme mainly responsible for hydrolysis (AADAC): AADAC

CC(=O)Nc1ccc(O)cc1 [paracetamol, Paracetamol]
dose hydrolysed in humans in vivo [3]: 1–2%

CCCNC(C)C(=O)Nc1ccccc1C (stereo not shown) [prilocaine, Prilocaine]
amide hydrolysis in humans in vivo [3]: undergo hydrolysis

CCC(=O)Nc1ccc(Cl)c(Cl)c1 [propanil, Propanil]
amide hydrolysis [4]: successful hydrolysis | amide hydrolysis in humans in vivo ([3]; human): undergo hydrolysis
